Laboratory results: patent publication US20160067211A1, “PHARMACEUTICAL COMPOSITION” (Eberhard Karls Universitaet Tuebingen Medizinische Fakultaet, priority 2013, published 2016)

Legend:
HT-29 colon cancer cells = test: MUH proliferation assay, HT-29; assay type: cell-based; settings: rising concentrations 0.1 μM to 100 μM, 48 hours
Procedure: (§1) FIG. 6: 6-PN and 8-PN inhibit the growth of MCF-7 and HT-29. (A, B) MUH proliferation assay of HT-29 colon cancer cells and MCF-7 breast cancel cells treated with increasing concentrations of 6-PN and 8-PN (0.1 μM to 100 μM) for 48 hours. Shown are the mean±S.A.; the experiments were performed in quadruplicates.
(§2) The cells were seeded in triplicates in 96-well plates at a density of 2,500 cells per well in 50 μl medium (5×10^4 cells per milliliter). After 24 hours, the medium was replaced by medium containing 6-PN, 8-PN (dissolved in DMSO), TSA (dissolved in EtOH) or SAHA (dissolved in DMSO) at the concentrations to be tested with or without the addition of the necrosis inhibitor IM-54 at 5 μM (Calbiochem, Darmstadt, Germany). Cells treated with culture medium without or with DMSO served as controls. The assay was started following an incubation of 24 hours. The medium was discarded, each well was washed two times with PBS (without Ca^++ and Mg^++) and 100 μl of a solution containing […] of 4-methyl umbellipheryl heptanoate per ml PBS was added. Plates were incubated at 37° C. for 1 hour and measured in a Fluoroskan II (Lab Systems, Helsinki, Finland) with a […]. The intensity of fluorescence indicates the number of viable cells in the wells. […]

BLM melanoma cells = test: Real time cell monitoring assay (xCELLigence), BLM; assay type: cell-based, human; settings: BLM, 20, 50 and 100 μM, 104 hours, vs. control
Procedure: FIG. 5: real time cell monitoring of BLM and SK-MEL-28 melanoma cells treated with 6-PN and 8-PN. (A) BML and SK-MEL-28 cells were treated 24 hours after seeding with different concentrations of 6-PN and 8-PN (20 μM, 50 μM and 100 μM) over a 104 hour time period. The cellular impedance was measured over the entire observation time using the xCELLigence™ SP system and is depicted by the cell index (CI). All CI-values were normalized shortly before the treatment started. […] As a positive control, Triton X-100 0.1% was used to induce cell death. Shown are the mean±SD of three independent experiments, each performed in triplicates (B, C). […]
The human melanoma cell lines BLM and SK-MEL-28 (2.5×10^3 cells/well) were seeded in 96 well plates. The cells were treated after 24 hours with different concentrations of 6-PN or 8-PN (20 μM, 50 μM and 100 μM) and monitored by measurements of electrical impedance in 15 minutes intervals for an overall time span of in total 104 hours using the xCELLigencer® SP Systems (Roche Applied Science). The cell index values were calculated using the RTCA software (1.0.0.0805). […]
The human metastatic melanoma cell lines BLM and SK-MEL-28 were treated once with rising concentrations of 6-PN or 8-PN (20 μM, 50 μM and 100 μM) and monitored continuously for an overall time span of 104 hours using a real time monitoring assay (FIG. 5A). […]

[1] = system: MCF-7 breast cancer cells; test: MUH proliferation assay, MCF-7; assay type: cell-based; settings: MCF-7, rising concentrations 0.1 μM to 100 μM, 48 hours
Procedure: as §1, §2

SK-MEL-28 melanoma cells [2] = test: Apoptosis antibody array (35 proteins); assay type: cell-based, human; settings: SK-MEL-28, 100 μM, 4 hours
Procedure: Apoptosis assay (35 proteins) performed on lysates of SK-MEL-28 melanoma cells 4 hours after treatment with 100 μM of 6-PN or 8-PN. Protein expression levels were estimated performing a densitometric analysis. Neither 6-PN nor 8-PN yielded a significant change of expression of the analyzed proteins involved in apoptosis.
Testing of apoptosis induction was performed with the human Proteom-Profiler-Apoptosis-Antibody-Array-Kit (R & D Systems, Wiesbaden, Germany) as described by the manufacturer after treatment of SK-MEL-28 melanoma cells with 100 μM 6-PN or 100 μM 8-PN for 4 hours.
(§3) To further analyze the possibility of apoptosis induction, an extensive apoptosis assay was performed on SK-MEL-28 melanoma cells 4 hours after treatment with 100 μM 6-PN or 8-PN (FIG. 9). […] This was verified by FACS cell cycle analyses to screen for a possible increase of the sub-G1 fraction of cells (apoptotic cells) or for the induction of a G2 arrest (inhibition of proliferation). […] To further differentiate between the induction of apoptosis and/or necrosis an PI/Annexin V staining of SK-MEL-28 and BLM cells was performed 4 hours and 24 hours after the treatment with 6-PN or 8-PN; 10 μM staurosporin (6 hours treatment) was used as positive control for the induction of apoptosis; DMSO treatment was used as vehicle control. The cells were then analyzed by FACS.

[3] = system: prostate cancer cell line DU145; settings: DU145 in vitro; cited from earlier work
MRP1 = MRP1 (Homo sapiens, UniProt P33527); settings: cited from earlier work
Chain of MRP1 (P33527 whole entry): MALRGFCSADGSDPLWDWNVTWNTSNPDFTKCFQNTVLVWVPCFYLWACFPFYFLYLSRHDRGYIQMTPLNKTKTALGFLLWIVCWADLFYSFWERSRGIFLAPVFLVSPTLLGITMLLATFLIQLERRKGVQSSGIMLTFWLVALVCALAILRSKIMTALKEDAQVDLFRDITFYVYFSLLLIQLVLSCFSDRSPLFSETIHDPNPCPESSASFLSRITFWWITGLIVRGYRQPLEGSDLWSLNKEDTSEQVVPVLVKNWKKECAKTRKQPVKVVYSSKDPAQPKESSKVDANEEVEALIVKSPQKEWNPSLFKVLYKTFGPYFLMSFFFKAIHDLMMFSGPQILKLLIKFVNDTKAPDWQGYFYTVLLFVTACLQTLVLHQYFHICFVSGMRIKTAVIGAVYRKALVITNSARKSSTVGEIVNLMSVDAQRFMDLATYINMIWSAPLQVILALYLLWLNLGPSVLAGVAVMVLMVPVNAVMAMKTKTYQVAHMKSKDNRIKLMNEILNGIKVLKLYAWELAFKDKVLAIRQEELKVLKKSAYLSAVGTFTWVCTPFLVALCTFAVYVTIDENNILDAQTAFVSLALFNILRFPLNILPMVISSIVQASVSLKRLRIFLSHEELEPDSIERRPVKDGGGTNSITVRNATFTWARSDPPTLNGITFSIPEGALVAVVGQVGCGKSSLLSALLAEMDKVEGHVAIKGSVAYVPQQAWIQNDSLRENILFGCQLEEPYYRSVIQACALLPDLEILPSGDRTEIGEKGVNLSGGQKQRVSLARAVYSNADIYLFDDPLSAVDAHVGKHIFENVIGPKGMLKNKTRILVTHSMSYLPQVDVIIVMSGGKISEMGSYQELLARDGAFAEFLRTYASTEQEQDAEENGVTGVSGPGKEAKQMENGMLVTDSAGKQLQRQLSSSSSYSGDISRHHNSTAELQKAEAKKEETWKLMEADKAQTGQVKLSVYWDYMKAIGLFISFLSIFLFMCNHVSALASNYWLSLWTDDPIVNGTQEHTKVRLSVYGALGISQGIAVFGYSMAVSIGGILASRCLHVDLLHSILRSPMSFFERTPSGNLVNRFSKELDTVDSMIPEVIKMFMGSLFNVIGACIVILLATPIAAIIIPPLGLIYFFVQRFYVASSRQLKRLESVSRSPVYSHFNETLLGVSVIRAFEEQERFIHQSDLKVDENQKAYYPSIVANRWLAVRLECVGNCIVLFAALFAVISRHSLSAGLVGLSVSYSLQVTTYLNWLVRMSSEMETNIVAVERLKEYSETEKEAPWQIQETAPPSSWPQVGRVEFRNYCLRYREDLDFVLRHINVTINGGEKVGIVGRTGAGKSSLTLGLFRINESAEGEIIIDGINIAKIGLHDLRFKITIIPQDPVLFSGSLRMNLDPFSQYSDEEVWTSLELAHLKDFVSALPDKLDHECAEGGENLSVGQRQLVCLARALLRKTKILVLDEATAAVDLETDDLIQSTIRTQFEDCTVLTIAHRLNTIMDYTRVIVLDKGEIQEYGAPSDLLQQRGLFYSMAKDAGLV

SK-MEL-28 melanoma cells [4] = test: PI/Annexin V staining FACS, SK-MEL-28; assay type: cell-based, human; settings: SK-MEL-28, 100 μM; for annexin V positive (apoptotic) cells: DMSO control 2.5%; for PI positive (nectrotic) cells: DMSO control 7.9%
Procedure: (A) Cell cycle FACS analyses of PI stained BLM and SK-MEL-28 melanoma cells. 100 μM of 8-PN-induced a G2 arrest in both cells. (B) FACS analyses of BLM and SK-MEL-28 melanoma cells treated with 100 μM 6-PN or 8-PN and stained for annexin V/PI; staurosporin was used as control for apoptosis induction and DMSO as vehicle control. […] (C) BLM and SK-MEL-28 melanoma cells were treated with 100 μM of PNs; TSA, SAHA and EMSO were used as controls.
as §3

## CC(C)=CCc1c(O)cc(O)c2c1OC(c1ccc(O)cc1)CC2=O (stereo not shown) [8-PN, 5,7-Dihydroxy-2-(4-hydroxy-phenyl)-8-(3-methyl-but-2-enyl)-chroman-4-one]
HT-29 colon cancer cells
  cell proliferation: severe reduction
BLM melanoma cells
  normalized cell index (CI): descended over time
[1]
  cell proliferation: severe reduction
SK-MEL-28 melanoma cells [2]
  apoptosis induction (expression of 35 apoptosis proteins, densitometric): not apoptosis related
[3]
  antiproliferative effects: antiproliferative effects
MRP1
  inhibition of MRP1: inhibition
SK-MEL-28 melanoma cells [4]; 4 hours
  annexin V positive (apoptotic) cells: 0.2%
  PI positive (nectrotic) cells: 29.9%
SK-MEL-28 melanoma cells [4]; 24 hours
  annexin V positive (apoptotic) cells: 0.5%
  PI positive (nectrotic) cells: 58.2%
